Laboratory results as given in US20230277570A1, “ENPP1 Inhibitors and Their Use for the Treatment of Cancer” (The Board of Trustees of the Leland Stanford Junior …, priority 2017, published 2023).

How the values were obtained:
[1] = target: T1, purified recombinant mouse ENPP1 (Mus musculus (Mouse), UniProt P06802); assay: ENPP1 activity assay using thymidine monophosphate paranitrophenol (TMP-pNP) as a substrate; assay type: biochemical; conditions: TMP-pNP 2 μM, mouse ENPP1 0.5 nM, pH 7.5
Method: Selected compounds of Table 1, Table 2 and other derivatives were prepared and assessed in an ENPP1 activity assay using thymidine monophosphate paranitrophenol (TMP-pNP) as a substrate. Enzyme reactions were prepared with TMP-pNP (2 μM), 5-fold dilutions of ENPP1 inhibitor, and purified recombinant mouse ENPP1 (0.5 nM) in 100 mM Tris, 150 mM NaCl, 2 mM CaCl2, 200 μM ZnCl2, pH 7.5 at room temperature. Reaction progress was monitored by measuring absorbance at 400 nm of paranitrophenolate produced by the reaction for 20 minutes.

[2] = target: T1, purified recombinant mouse ENPP1; assay: ENPP1 enzyme activity assay using 32P cGAMP as a substrate (TLC); assay type: biochemical; conditions: 32P-cGAMP 5 μM, mouse ENPP1 20 nM, pH 7.5, 5 hours
[3] = tested on: 4T1-luciferase tumor; assay: 4T1 tumor model: tumor volume and survival with IR, cGAMP, anti-CTLA-4; assay type: in vivo, Balb/c mice; conditions: 20 Gy IR, then single agent intratumorally on day 2, 4 and 7 (100 μL of 100 μM compound 1 or 10 μg cGAMP)

T1 sequence (P06802 whole entry): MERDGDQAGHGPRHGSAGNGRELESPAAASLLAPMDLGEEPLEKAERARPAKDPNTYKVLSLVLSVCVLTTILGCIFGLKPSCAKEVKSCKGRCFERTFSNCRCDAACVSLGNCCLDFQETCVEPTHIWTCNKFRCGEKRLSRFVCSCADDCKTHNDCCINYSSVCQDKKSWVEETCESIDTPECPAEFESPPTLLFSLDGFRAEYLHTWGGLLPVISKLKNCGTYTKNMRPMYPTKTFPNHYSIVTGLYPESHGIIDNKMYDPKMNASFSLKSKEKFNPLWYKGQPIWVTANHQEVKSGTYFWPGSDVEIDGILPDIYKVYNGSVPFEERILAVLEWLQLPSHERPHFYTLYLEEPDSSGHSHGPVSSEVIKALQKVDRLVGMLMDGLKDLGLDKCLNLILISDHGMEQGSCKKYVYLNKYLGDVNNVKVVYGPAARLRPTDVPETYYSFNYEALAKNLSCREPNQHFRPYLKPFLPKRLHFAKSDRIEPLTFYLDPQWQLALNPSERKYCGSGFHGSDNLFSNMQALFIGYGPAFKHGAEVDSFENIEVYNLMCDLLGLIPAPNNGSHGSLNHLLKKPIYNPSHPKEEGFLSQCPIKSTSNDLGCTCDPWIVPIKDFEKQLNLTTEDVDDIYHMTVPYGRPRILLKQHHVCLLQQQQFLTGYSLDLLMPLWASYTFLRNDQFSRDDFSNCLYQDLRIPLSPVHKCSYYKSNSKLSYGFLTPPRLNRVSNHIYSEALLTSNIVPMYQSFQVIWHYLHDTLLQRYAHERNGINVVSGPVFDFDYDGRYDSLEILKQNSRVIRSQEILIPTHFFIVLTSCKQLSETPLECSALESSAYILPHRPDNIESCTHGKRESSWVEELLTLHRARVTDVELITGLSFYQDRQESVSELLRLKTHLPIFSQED

| SMILES | IC50 [1] [µM] | IC50 [2] [µM] | tumor shrinkage effect over IR treatment [3] |
| --- | --- | --- | --- |
| COc1cc2ncnc(N3CCC(CP(=O)(O)O)CC3)c2cc1OC [Compound 88, ((1-(6,7-dimethoxyquinazolin-4-yl)piperidin-4-yl)methyl)phosphonic acid] | < 0.5 | – | – |
| COc1cc2nccc(N3CCC(CCP(=O)(O)O)CC3)c2cc1OC [Compound 71] | < 0.5 | – | – |
| COc1cc2ncnc(N3CCN(C(=O)CP(=O)(O)O)CC3)c2cc1OC [Compound 75] | < 0.5 | 0.5 to 5 | – |
| COc1cc2ncnc(N3CCC(CC(=O)NO)CC3)c2cc1OC [Compound 61] | 0.5 to 5 | – | – |
| COc1cc2ncnc(N3CCC(COP(O)(O)=S)CC3)c2cc1OC [Compound 67] | < 0.5 | – | – |
| COc1ccc2c(N3CCN(CCP(=O)(O)O)CC3)ncnc2c1 [Compound 42] | > 10 | – | – |
| COc1cc(OC)c2ncnc(N3CCC(CCP(=O)(O)O)CC3)c2c1 [Compound 7] | < 0.5 | – | – |
| O=P(O)(O)CCC1CCN(c2ncnc3ccccc23)CC1 [Compound 25] | < 0.5 | – | – |
| CC(C)Oc1ccc2c(N3CCC(CCP(=O)(O)O)CC3)ncnc2c1 [Compound 11] | > 10 | – | – |
| Cc1nccn1-c1cc(N2CCC(CCP(=O)(O)O)CC2)ncn1 [Compound 93] | < 0.5 | – | – |
| Cc1nccn1-c1cc(N2CCN(CCP(=O)(O)O)CC2)ncn1 [Compound 100] | < 0.5 | – | – |
| COc1ccc2c(N3CCC(CCP(=O)(O)O)CC3)ncnc2c1 [Compound 10] | < 0.5 | < 0.5 | – |
| COc1ccc(OC)c2c(N3CCC(CCP(=O)(O)O)CC3)ncnc12 [Compound 16] | 0.5 to 5 | – | – |
| CNC(=O)NCC1CCN(c2ncnc3cc(OC)c(OC)cc23)CC1 [Compound 73] | > 10 | – | – |
| COc1ccc2ncnc(N3CCC(CCP(=O)(O)O)CC3)c2c1 [Compound 19] | < 0.5 | – | – |
| COc1cccc2c(N3CCC(CCP(=O)(O)O)CC3)ncnc12 [Compound 76] | < 0.5 | < 0.5 | – |
| COc1ccc2c(N3CCC(CCP(=O)(O)O)CC3)nc(/C=C/c3cccnc3)nc2c1 [Compound 18] | < 0.5 | < 0.5 | – |

| SMILES | IC50 [1] [µM] | IC50 [2] [µM] | tumor shrinkage effect over IR treatment [3] |
| --- | --- | --- | --- |
| Nc1nc2c(ncn2[C@@H]2O[C@@H]3COP(=O)(O)O[C@H]4[C@@H](O)[C@H](n5cnc6c(N)ncnc65)O[C@@H]4COP(=O)(O)O[C@@H]2[C@@H]3O)c(=O)[nH]1 [cGAMP, cyclic guanosine monophosphate-adenosine monophosphate] | – | – | no effect over IR treatment |
| COc1cc2ccnc(N3CCC(CCP(=O)(O)O)CC3)c2cc1OC [Compound 38] | < 0.5 | – | – |
| Nc1ccc2c(N3CCC(CCP(=O)(O)O)CC3)ncnc2c1 [Compound 30] | < 0.5 | – | – |
| COc1ccc2c(N3CCC(CCP(=O)(O)O)CC3)nc(C)nc2c1 [Compound 12] | < 0.5 | – | – |
| O=P(O)(O)CCC1CCN(c2ncnc3ccc(O)cc23)CC1 [Compound 23] | 0.5 to 5 | – | – |
| COc1ccc2c(N3CCC(CCP(=O)(O)O)CC3)ncnc2c1OC [Compound 22] | < 0.5 | – | – |
| COc1cc2ncnc(N3CCC(CCB(O)O)CC3)c2cc1OC [Compound 87] | < 0.5 | – | – |
| COc1cc2ncnc(N3CCC(COP(=O)(O)O)CC3)c2cc1OC [Compound 60] | < 0.5 | – | – |
| O=P(O)(O)CCC1CCN(c2ncnc3cc(Cl)ccc23)CC1 [Compound 84] | < 0.5 | – | – |
| COc1cc2ncnc(N3CCC(CCP(O)(O)=S)CC3)c2cc1OC [Compound 83, (2-(1-(6,7-dimethoxyquinazolin-4-yl)piperidin-4-yl)ethyl)phosphonothioic O,O-acid] | < 0.5 | – | – |
| O=P(O)(O)CCC1CCN(c2ncnc3cc4c(cc23)OCCO4)CC1 [Compound 13] | 0.5 to 5 | – | – |
| COc1cccc2c(N3CCC(COP(=O)(O)O)CC3)ncnc12 [Compound 86] | < 0.5 | – | – |
| O=P(O)(O)CCC1CCN(c2ncnc3cc(O)ccc23)CC1 [Compound 5] | < 0.5 | – | – |
| O=P(O)(O)CCC1CCN(c2ncnc3cccc(F)c23)CC1 [Compound 70] | < 0.5 | – | – |
| COc1cc2ncnc([C@H]3CC[C@H](CCP(=O)(O)O)CC3)c2cc1OC [Compound 82, (2-((1,4-trans)-4-(6,7-dimethoxyquinazolin-4-yl)cyclohexyl)ethyl)phosphonic acid] | < 0.5 | – | – |
| COc1cc2ncnc([C@H]3CC[C@@H](CCP(=O)(O)O)CC3)c2cc1OC [Compound 81, (2-((1,4-cis)-4-(6,7-dimethoxyquinazolin-4-yl)cyclohexyl)ethyl)phosphonic acid] | < 0.5 | – | – |
